Results taken from ChEMBL document CHEMBL1154330, “Cucurbitane-type triterpenoids from the African plant Momordica balsamina” (J Nat Prod, 2009).

System: MCF7
Test: Cytotoxicity against human MCF7 cells after 24 hrs by MTT assay
Assay type: functional, cell-based
Conditions: MCF7, 24 h

| SMILES | IC50 [µM] |
| --- | --- |
| C[C@H](C/C=C/C(C)(C)O)[C@H]1CC[C@@]2(C)[C@@H]3[C@@H](O)C=C4[C@@H](CC[C@H](O)C4(C)C)[C@]3(C)CC[C@]12C | 45.3 |
| C=C(C)[C@@H](O)[C@H](O)C[C@@H](C)[C@H]1CC[C@@]2(C)[C@@H]3[C@@H](O)C=C4[C@@H](CC[C@H](O)[C@]4(C)CO)[C@]3(C)CC[C@]12C [BALSAMINAPENTAOL A] | 47 |
| CC(C)=C[C@H](O)C[C@@H](C)[C@H]1CC[C@@]2(C)[C@@H]3[C@@H](O)C=C4[C@@H](CC[C@H](O)[C@]4(C)CO)[C@]3(C)CC[C@]12C [BALSAMINOL A] | 40 |
| CO[C@H]1C=C2[C@@H](CC[C@H](O)[C@]2(C)CO)[C@]2(C)CC[C@]3(C)[C@@H]([C@H](C)C[C@@H](O)C=C(C)C)CC[C@@]3(C)[C@H]12 [BALSAMINOL B] | 55.3 |
| C[C@H](C/C=C/C(C)(C)O)[C@H]1CC[C@@]2(C)[C@@H]3[C@@H](O)C=C4[C@@H](CC[C@H](O)C4(C)C)[C@]3(C)C[C@@H](O)[C@]12C [CUCURBALSAMINOL A] | > 133 |
| COc1cccc2c1C(=O)c1c(O)c3c(c(O)c1C2=O)C[C@@](O)(C(=O)CO)C[C@@H]3O[C@H]1C[C@H](N)[C@H](O)[C@H](C)O1 [DOXORUBICIN] | 0.92 |
| CC(C)=C[C@H](O)C[C@@H](C)[C@H]1CC[C@@]2(C)[C@@H]3C=C[C@@]45OC[C@]3(CC[C@]12C)[C@@H]4CC[C@H](O)C5(C)C [KARAVILAGENIN E] | 30.7 |
